From PubChem BioAssay AID1996
Converted amounts (≈) assume the structure as drawn.

Details: buffer; pH 7.4; 200.0 µM

Row | Compound | solubility kinetic [µg/mL]
1 | CC(CNC(=O)CCc1ccccc1)NC(=O)CCc1ccccc1 (stereo not given) | 19 (≈ 56.1 µM)
2 | COc1ccc(-c2nc(N)ncc2-c2ccccc2OC)c(O)c1 | 23.3 (≈ 72.1 µM)
3 | O=C(Nc1cc2c3c(c1)CC(=O)N3CCC2)c1ccco1 | 39.6 (≈ 140 µM)
4 | CCOc1ccccc1Nc1nnc(SCC(=O)NCC2CCCO2)s1 (stereo not given) | > 59.2
5 | O=C(NCc1ccccc1Cl)c1cc(C(=O)C2CC2)c[nH]1 | < 0.3
6 | Cc1ccc(S(=O)(=O)N2CCOCC2)s1 | > 37.1
7 | COCC(C)NC(=O)COCc1cc(-c2ccc3c(c2)OCO3)on1 (stereo not given) | 39 (≈ 112 µM)
8 | O=C(NN1CCOCC1)c1cccc(Cl)c1 | > 36.1
9 | O=C(OCC(=O)N1CCCCCC1)c1ccc(Br)c(S(=O)(=O)N2CCOCC2)c1 | > 73.4
10 | CC(C)CC1(C)NC(=O)N(CC(=O)Nc2ccc(F)c(F)c2F)C1=O (stereo not given) | 48.6 (≈ 136 µM)
11 | O=c1nccc(N/N=C/c2cccc(O)c2)[nH]1 | > 34.5
12 | CCC(CC)NC(=O)C1CC(=O)N(CCc2ccc(F)cc2)C1 (stereo not given) | > 48.1
13 | O=C(NCc1ccccn1)Nc1cccc(F)c1 | 35.9 (≈ 146 µM)
14 | CC(NC(=O)c1ccc(N(C)C)cc1)c1ccc(F)cc1 (stereo not given) | 6.5 (≈ 22.7 µM)
15 | CC(=O)Nc1sc(C)c(C)c1C(=O)OCC(=O)Nc1cccc(C)c1 | 1.1 (≈ 3.05 µM)
16 | Cn1c(Nc2ccc(F)cc2)nc2ccccc21 | 28 (≈ 116 µM)
17 | CS(=O)(=O)Oc1ccc2c(c1)O/C(=C\c1cccnc1)C2=O | 5 (≈ 15.8 µM)
18 | Cc1ccc(C(C)NC(=S)NC2CCCCC2)cc1C (stereo not given) | 7.8 (≈ 26.9 µM)
19 | Cc1cc2c(c(=O)o1)C(c1ccc([N+](=O)[O-])o1)C(C#N)=C(N)O2 (stereo not given) | > 47.3
20 | Cn1ccnc1SCC(=O)Nc1cc(F)ccc1F | 41.8 (≈ 148 µM)
21 | COc1ccc(/C=C/C(=O)Nc2cccnc2Cl)cc1 | 8.9 (≈ 30.8 µM)
22 | CC1CC(=O)Nc2ccccc2N1S(=O)(=O)c1ccc(C#N)cc1 (stereo not given) | 2.7 (≈ 7.91 µM)
23 | CC1CC(C)CN(C(=O)CCn2c(=O)oc3ccccc32)C1 (stereo not given) | > 45.4
24 | O=C(COC(=O)c1ccc(F)c(S(=O)(=O)N2CCOCC2)c1)NCCc1ccc(F)cc1 | 17.5 (≈ 37.4 µM)

Row | Compound | solubility kinetic [µg/mL]
25 | O=c1cc(-c2ccccc2)c2cc3c(cc2[nH]1)OCCO3 | 1.4 (≈ 5.01 µM)
26 | Cc1ccc(CN2CCN(C(=O)c3cccc4ccccc34)CC2)cc1.O=C(O)C(=O)O | 59.6
27 | CSC(=Nc1ccccc1)Nc1ccccc1 | 6.4 (≈ 26.4 µM)
28 | COc1ccc(-n2cnc3sccc3c2=O)cc1 | 35.8 (≈ 139 µM)
29 | COc1cc(C(=O)Nc2ccccc2C(=O)Nc2ccccn2)cc(OC)c1OC | 4.6 (≈ 11.3 µM)
30 | CC(OC(=O)c1c(F)cccc1F)C(=O)NCCC1=CCCCC1 (stereo not given) | > 50.6
31 | O=C(CC1SC(=Nc2ccc(O)cc2)NC1=O)Nc1ccccc1 (stereo not given) | 3.9 (≈ 11.4 µM)
32 | O=C(O)C1CCN(C(=O)c2cc(F)cc3c2OCOC3)CC1 | > 46.4
33 | Cc1cc(C(=O)Nc2ccc3ccccc3c2)oc1C | 3.8 (≈ 14.3 µM)
34 | CC(C)(C)OC(=O)N1CCCN(C(=O)Nc2ccccc2)CC1 | 46.3 (≈ 145 µM)
35 | COC(=O)c1ccc(N2CCN(C)CC2)c(NC(=O)c2cccnc2)c1 | 51.4 (≈ 145 µM)
36 | O=S(=O)(N1CCOCC1)N1CCOCC1 | > 35.4
37 | O=C(Nc1ccc(F)cc1)C(=O)C1C(=O)Nc2ccccc21 (stereo not given) | > 44.7
38 | O=C(Cc1cccs1)NCc1ccc(Cl)cc1 | 23.5 (≈ 88.4 µM)
39 | COC(=O)C(NC(=O)C(C)NC(=O)OCc1ccccc1)C(C)C (stereo not given) | > 50.5
40 | CC(C)(C)c1ccc(OCC(O)CN2CCCC2)cc1.Cl (stereo not given) | > 47.1
41 | O=C(Cc1ccc(Cl)cc1)NCCc1ccc(F)cc1 | 19.4 (≈ 66.5 µM)
42 | CC(=O)NC1CCN(CC(=O)Nc2nccs2)CC1 | 40.5 (≈ 143 µM)
43 | CN(C)CCNc1ncnc2sc(-c3ccccc3)cc12 | 39.7 (≈ 133 µM)
44 | OCC1OC(Oc2c[nH]c3ccccc23)C(O)C(O)C1O (stereo not given) | > 44.3
45 | CC(C)CNC(=O)COC(=O)C1c2ccccc2Oc2ccccc21 | 41.4 (≈ 122 µM)
46 | O=C1CN(C(=O)COC(=O)CCc2ccccc2)c2ccccc2N1 | > 50.8
47 | COc1ccc(C(=O)Nc2ccc(NC(=O)c3ccccc3F)cn2)cc1 | 1 (≈ 2.74 µM)
48 | Nc1nc(-c2ccccc2)cc(-c2ccccc2)n1 | 2.6 (≈ 10.5 µM)

Row | Compound | solubility kinetic [µg/mL]
49 | O=C(O)c1ncsc1-c1ccccc1 | 29.1 (≈ 142 µM)
50 | O=C(c1cc2cc(Cl)ccc2[nH]1)N1CCN(c2ccccc2F)CC1 | < 0.3
51 | O=[N+]([O-])c1ccc(Sc2ccccn2)nc1 | 34.9 (≈ 150 µM)
52 | O=c1c(Cc2ccc(F)cc2)c(O)ccn1CC1CCCO1 (stereo not given) | > 45.5
53 | CC(NC(=O)c1ccco1)c1ccc2c(c1)OCO2 (stereo not given) | > 38.9
54 | COc1ccc(C(=O)Nc2cccc3ccccc23)cc1 | 1.1 (≈ 3.97 µM)
55 | CCOC(=O)C(=O)Nc1ncc(Cl)s1 | 34.2 (≈ 146 µM)
56 | CC(=O)c1cccc(NC(=O)CC2CCCC2)c1 | > 36.8
57 | Cc1ccc(C(=O)NC(C)c2ccc(-n3ccnc3)cc2)o1 (stereo not given) | 40.8 (≈ 138 µM)
58 | CC1CCN(C(=O)c2ccc3ccccc3c2)CC1 | 23.8 (≈ 93.9 µM)
59 | CCN(CC)CC(=O)Nc1c(C#N)cnn1-c1ccccc1 | > 44.6
60 | Cl.N[C@@H](CCl)C(=O)O | > 24
61 | CC(=O)Nc1ccc(S(=O)(=O)N(C#N)c2nc(C)cc(C)n2)cc1 | > 51.8
62 | COC(=O)C(C)(N)Cc1ccc(O)cc1.Cl (stereo not given) | > 36.9
63 | NC(=O)CN1C(=O)NC2(CCCc3ccccc32)C1=O (stereo not given) | > 41
64 | COC(=O)c1c(C)nc(C)c(C(=O)OC)c1-c1ccc(OC)cc1 | > 49.4
65 | CCCCc1nc2cc(C(=O)N3CCCC3)ccc2o1 | > 40.9
66 | O=C(O)C1CC=CCC1C(=O)NCCCN1CCCC1=O (stereo not given) | > 44.2
67 | O=C(c1ccc(-n2cccn2)cc1)N1CCc2ccccc2C1 | > 45.5
68 | Clc1ccccc1NC1=NCCCS1 | > 34
69 | Cc1ccc(NC(=O)CSc2cccc[n+]2[O-])c([N+](=O)[O-])c1 | > 47.9
70 | O=c1cnc2ccccc2n1Cc1ccccc1C(F)(F)F | 43.1 (≈ 142 µM)
71 | COC(=O)CN(C#N)c1nc(NCc2ccccc2)nc(OC)n1 | > 49.2
72 | COc1ccc(CCNC(=O)C2CC(=O)N(c3ccc(C)cc3)C2)cc1 (stereo not given) | 2.5 (≈ 7.09 µM)

Row | Compound | solubility kinetic [µg/mL]
73 | Cc1sc2ncnc(SCC(=O)N(C(C)C)C(C)C)c2c1C | 1.6 (≈ 4.74 µM)
74 | COc1cccc(C2NC(=O)NC(C)=C2C(=O)OCC2CCCO2)c1 (stereo not given) | 44.9 (≈ 130 µM)
75 | COc1ccc(NC(=O)c2ccc3[nH]c(C)c(C)c3c2)cc1 | 3.6 (≈ 12.2 µM)
76 | Cc1cc(C)c(S(=O)(=O)NCc2ccc3c(c2)OCO3)c(C)c1 | 1.7 (≈ 5.1 µM)
77 | Cc1ccc(NS(=O)(=O)c2ccc(NC(=O)c3ccccc3C(=O)O)cc2)c(C)c1 | > 63.7
78 | CCC(C)c1ccc(NC(=S)N2CCN(S(C)(=O)=O)CC2)cc1 (stereo not given) | 8.8 (≈ 24.8 µM)
79 | O=C1CN(C(=O)c2cccc([N+](=O)[O-])c2)CC(=O)N1 | > 39.5
80 | O=C(NCC(=O)N1CCc2ccccc2C1)c1ccccc1Cl | > 49.3
81 | CC(=O)Nc1cccc(C(=O)/C=C/c2ccc[nH]2)c1 | > 38.1
82 | OCc1ccccc1OCCCOc1cccc2cccnc12 | > 46.4
83 | Cc1cc(OCC(=O)Nc2ccncc2)ccc1[N+](=O)[O-] | 35.8 (≈ 125 µM)
84 | COC(=O)c1ccc(-c2noc(CN3CCCC(CNC(C)=O)C3)n2)cc1 (stereo not given) | 43.3 (≈ 116 µM)
85 | O=c1c2ccccc2nc(Cc2ccccc2)n1-c1ccccc1 | 39.5 (≈ 126 µM)
86 | Cc1cccc(NC(=O)c2nc[nH]c2C(=O)Nc2cccc(C)c2)c1 | 0.2 (≈ 0.598 µM)
87 | COC(=O)c1cc(NC(=O)c2cccs2)ccc1N1CCOCC1 | 43.5 (≈ 126 µM)
88 | CNC(=O)C1CC(=O)N(CCc2ccc(C)cc2)C1 (stereo not given) | > 39.1
89 | C[C@H](NC(N)=O)C(=O)Nc1ccc2c(c1)OCO2 | 32.9 (≈ 131 µM)
90 | Cc1cccc(CC(=O)c2c[nH]c3ccccc23)c1 | 0.9 (≈ 3.61 µM)
91 | CS(=O)(=O)c1ccc2nc(NC(=O)Nc3ccccc3F)sc2c1 | 0.8 (≈ 2.19 µM)
92 | CC(OC(=O)c1ccc2c(c1)S(=O)(=O)c1ccccc1C2=O)C(N)=O (stereo not given) | 29.3 (≈ 81.5 µM)
93 | Cc1cccc(C)c1NC(=O)CN(C1CCCCC1)S(C)(=O)=O | > 50.8
94 | CCCc1cc(=O)[nH]c(SCC(=O)N2CCCCCC2)n1 | > 46.4
95 | COC(=O)c1ccc(NC(=O)Nc2ccc3c(c2)OCO3)cc1 | 0.8 (≈ 2.55 µM)
96 | CC(C)(C)C(=O)N(Cc1ccccc1)c1ccccn1 | 40.2 (≈ 150 µM)

Row | Compound | solubility kinetic [µg/mL]
97 | COc1ccc(OC)c(S(=O)(=O)N2CCCC(C(=O)NCc3ccccn3)C2)c1 (stereo not given) | > 62.9
98 | C=CCSc1nc2sc3c(c2c(=O)n1-c1ccc(C)cc1)CCN(C)C3 | 22.3 (≈ 58.1 µM)
99 | CCn1c(NCCO)nc2c(c1=O)C(C)(CC)Cc1ccccc1-2 (stereo not given) | 12.8 (≈ 39.1 µM)
100 | O=S(=O)(c1cccc2nsnc12)N1CCCCC1 | > 42.5
101 | Cc1cccn(Cc2c(F)cccc2Cl)c1=O | > 37.8
102 | CN1CCN(c2ccc(NC(=O)c3ccc(Cl)cc3)cn2)CC1 | > 49.6
103 | CC(=O)c1cccc(NC(=O)COC(=O)C2CCCN2C(=O)c2cccs2)c1 (stereo not given) | 6.5 (≈ 16.2 µM)
104 | CCc1cccc(C)c1NC(=O)CSc1nc(C)c(C)o1 | > 45.7
105 | Cc1cc(C)cc(N(C(C)C(=O)N2CCCC2)S(C)(=O)=O)c1 (stereo not given) | > 48.7
106 | CC(C)(C)N1CC(C(=O)Nc2ccc(C#N)cc2)CC1=O (stereo not given) | 40.2 (≈ 141 µM)
107 | Oc1cccnc1Sc1cccc(C(F)(F)F)c1 | 38.2 (≈ 141 µM)
108 | O=C(NCCN1CCCCC1)Nc1ccc([N+](=O)[O-])cc1 | > 43.9
109 | CN(C)CCCn1c(N)c(C#N)c2nc3ccccc3nc21 | > 44.2
110 | CCNC(=S)Nc1ccc(Cl)c([N+](=O)[O-])c1 | > 39
111 | Cc1[nH]c2ccccc2c1-c1csc(N)n1 | 28.1 (≈ 123 µM)
112 | O=C(COC(=O)/C=C/c1cccc(F)c1)NC(=O)NC1CCCC1 | 4.9 (≈ 14.7 µM)
113 | O=C(NN1CCOCC1)c1ccccc1Br | > 42.8
114 | CC(C)S(=O)(=O)c1cnc(-c2cccnc2)nc1N | 37.7 (≈ 135 µM)
115 | COn1c(=O)c(-c2ccc(F)cc2)[n+]([O-])c2ccccc21 | > 42.9
116 | CN(C)c1cc2c(cc1NS(=O)(=O)c1ccccc1)n(C)c(=O)n2C | 48 (≈ 133 µM)
117 | COc1ccccc1NC(=O)c1cc(=O)[nH]c2ccccc12 | 29.7 (≈ 101 µM)
118 | Cc1ccc(NC(=O)NCc2nc3ccccc3n2C)cc1 | 34.8 (≈ 118 µM)
119 | COc1ccc(C(=O)n2cc(C(C)=O)c3ccccc32)cc1 | 1.3 (≈ 4.43 µM)
120 | CCOC(=O)CSc1nc(C)cc2c1C(=O)OC2 | 37.5 (≈ 140 µM)
